# Measured values taken from patent US11220503B2, “Phthalazine derivatives, preparation method, pharmaceutical composition and usage thereof” (Shanghai SIMR Biotech Co., Ltd., priority 2015, dated 2022).
# Like-named read-outs stand apart in the source and are kept apart here.
# Experiments:
# α5β3γ2 receptor = biological target: T1, α5β3γ2 receptor (Homo sapiens, UniProt P18507+P31644); experiment: Cell level screening: whole cell patch clamp, inverse agonist efficacy; assay type: cell-based; details: for inverse agonism efficacy of the compound/α5IA inverse agonism efficacy: ratio to α5IA, compound 100 nM
# T1 construct: expressed in transfected cells; host or cells: HEK-293 (stably transfected)
# [1] = Tissue distribution of the compounds (brain/plasma); assay type: in vivo; details: brain and plasma, po; rat, 10 mg/kg p.o. in 50% PEG400, one hour; read-out: Brain/Plasma ratio
# Experimental: (§1) The distribution ratio of blood brain tissue was calculated by comparing the concentration of compound in rat plasma and brain tissue. The experimental animals were divided into two groups, the plasma group and the brain group, each with three. Rats were administed compounds in 50% PEG400 p.o. at a dose of 10 mg compound to be tested/kg. One hour later, plasma and brain samples were taken. Concentrations of compounds in brain and plasma were detected using LC-MS/MS-A (Triple Quad 5500) assay and analyzed using Phoenix WinNonlin.
# [2] = Compound tissue distribution (brain/plasma); assay type: in vivo; details: brain and plasma, po; rat, 10 mg/kg p.o. in 50% PEG400, one hour; read-out: Brain/Plasma ratio
# Experimental: as §1, with “To measure brain to plasma ratio, rats” for “Rats”, “LC-MS/MS-AJ” for “LC-MS/MS-A”
# We also measured the brain to plasma ratio of compound #24. The experimental animals were divided into two groups, the plasma group and the brain group, each with three. To measure the brain to plasma ratio, Rats were administered compounds (1 mg/kg in 5% DMSO+70% PEG400+25% H2O p.o.). One hour later, plasma and brain samples were taken. Concentrations of compounds in brain and plasma were detected using a LC-MS/MS-AJ (Triple Quad 5500) assay and analyzed using Phoenix WinNonlin.
# [3] = HEK293, compound 100 nM, GABA 0.05-0.1 μM, HEK293 α5β3γ2, clamped at −60 mV, (Ipost-Ipre)*100/Ipre, read-out: inverse agonism efficacy(%)
# T1 sequence (P31644 32-462): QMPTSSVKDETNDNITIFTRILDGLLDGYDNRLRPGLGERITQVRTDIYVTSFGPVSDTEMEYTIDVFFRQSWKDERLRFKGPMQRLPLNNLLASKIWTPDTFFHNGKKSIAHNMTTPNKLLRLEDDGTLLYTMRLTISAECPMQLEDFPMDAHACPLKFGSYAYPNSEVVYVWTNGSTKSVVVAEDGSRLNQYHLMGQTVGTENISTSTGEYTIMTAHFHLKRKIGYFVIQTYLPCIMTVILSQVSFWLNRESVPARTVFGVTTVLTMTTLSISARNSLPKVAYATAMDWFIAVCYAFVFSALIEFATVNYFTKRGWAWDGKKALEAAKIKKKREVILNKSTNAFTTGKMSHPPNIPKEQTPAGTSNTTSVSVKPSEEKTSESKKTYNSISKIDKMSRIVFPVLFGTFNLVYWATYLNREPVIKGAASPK
# T1 sequence (P28472 26-473 isoform P28472-2 partner limits assumed): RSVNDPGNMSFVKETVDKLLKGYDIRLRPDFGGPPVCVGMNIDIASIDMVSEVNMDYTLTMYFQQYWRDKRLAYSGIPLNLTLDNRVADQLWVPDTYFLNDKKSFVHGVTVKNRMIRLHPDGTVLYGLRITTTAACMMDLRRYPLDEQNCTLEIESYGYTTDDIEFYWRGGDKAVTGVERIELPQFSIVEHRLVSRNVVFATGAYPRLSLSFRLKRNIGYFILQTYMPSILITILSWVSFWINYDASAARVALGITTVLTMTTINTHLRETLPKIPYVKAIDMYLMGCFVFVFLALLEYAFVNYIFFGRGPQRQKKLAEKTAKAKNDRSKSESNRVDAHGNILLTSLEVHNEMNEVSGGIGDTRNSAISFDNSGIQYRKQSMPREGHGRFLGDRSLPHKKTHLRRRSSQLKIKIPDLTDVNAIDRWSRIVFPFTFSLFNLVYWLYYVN
# T1 sequence (P18507 40-475): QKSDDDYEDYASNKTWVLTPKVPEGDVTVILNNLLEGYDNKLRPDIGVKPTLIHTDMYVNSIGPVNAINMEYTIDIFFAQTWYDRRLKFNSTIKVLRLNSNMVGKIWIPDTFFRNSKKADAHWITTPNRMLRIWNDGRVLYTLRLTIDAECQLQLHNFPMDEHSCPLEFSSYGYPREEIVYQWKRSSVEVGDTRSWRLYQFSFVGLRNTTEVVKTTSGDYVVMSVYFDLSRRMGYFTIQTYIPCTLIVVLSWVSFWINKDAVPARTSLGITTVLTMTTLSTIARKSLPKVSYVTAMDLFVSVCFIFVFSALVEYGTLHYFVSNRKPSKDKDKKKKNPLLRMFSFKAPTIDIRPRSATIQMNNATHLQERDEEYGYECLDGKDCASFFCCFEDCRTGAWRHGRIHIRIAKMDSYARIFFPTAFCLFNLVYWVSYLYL
inhibition at 0.1 µM (α5β3γ2 receptor; [3]),"inhibition at 0.01 µM (α5β3γ2 receptor; dose-efficacy, Con. 10 nM, single replicates, read-out: Inverse agonism-Efficacy)","inhibition at 0.05 µM (α5β3γ2 receptor; dose-efficacy, Con. 50 nM, single replicates, read-out: Inverse agonism-Efficacy)","inhibition at 0.1 µM (α5β3γ2 receptor; dose-efficacy, Con. 100 nM, single replicates, read-out: Inverse agonism-Efficacy)","inhibition at 1 µM (α5β3γ2 receptor; dose-efficacy, Con. 1000 nM, single replicates, read-out: Inverse agonism-Efficacy)",inverse agonism efficacy of the compound/α5IA inverse agonism efficacy (α5β3γ2 receptor),Kp at 1 h [1],Kp at 1 h [2],SMILES
24.8%,25.5%,40%,45.8%,39.1%,1.1,< 0.01,< 0.01,"CCNC(=O)c1ccc(COc2nn3c(-c4cc(C)on4)nnc3c3ccccc23)nc1 [Compound 07, N-ethyl-6-(((3-(5-methylisoxazol-3-yl)-[1,2,4]triazolo[3,4-a]phthalazin-6-yl)oxy)methyl)nicotinamide]"
34%,–,–,–,–,1.508,< 0.01,< 0.01,"COCCNC(=O)c1ccc(COc2nn3c(-c4cc(C)on4)nnc3c3ccccc23)nc1 [Compound 08, N-(2-methoxyethyl)-6-(((3-(5-methylisoxazol-3-yl)-[1,2,4]triazolo[3,4-a]phthalazin-6-yl)oxy)methyl)nicotinamide]"
